Source: patent US20260027087A1, “DOSING REGIMENS COMPRISING A KAT6 INHIBITOR FOR THE TREATMENT OF CANCER” (PFIZER INC., priority 2022, published 2026)
Where two headings read alike, the source gives them in different places.

How the values were obtained:
[1] = Phase 1 clinical trial: COMPOUND A plasma pharmacokinetics; assay type: in vivo, human; conditions: for CL/F (apparent clearance) / Cmax / AUC: geometric mean (CV %); for Tmax / Cmax / AUC: human, plasma; for AUC: read-out: AUC24
Method: The patients in this trial are intolerant of or resistant to standard therapy.
COMPOUND A was orally administered at 2 mg, 5 mg, 8 mg, and 15 mg QD alone or 5 mg QD in combination with 500 mg of fulvestrant.
Preliminary pharmacokinetic parameters are available from 23 participants following the 1st oral dose (Day 1 of Cycle 1) and at steady state (Day 15 of Cycle 1) and presented in Table 1.
1S COMPOUND A was orally administered at 1 mg, 2 mg, 5 mg, 8 mg, and 15 mg QD alone or 5 mg QD in combination with 500 mg of fulvestrant.
A total of 29 participants had evaluable PK concentration data in Part 1A and Part 1B, at the time of the data cut-off date of 30 Sep. 2022. Of these participants, two (2) in the 1 mg QD dose group were excluded from Cycle 1 Day 15 summaries due to either dose interruption impacting PK analysis or sample collection after the data cut-off date.
Participants were to swallow COMPOUND A whole tablets and were not to manipulate or chew the study intervention prior to swallowing. COMPOUND A was administered QD by mouth for all cohorts on a continuous basis. The once daily dose was administered in 24±3 hour intervals (i.e., no less than 21 hours and no more than 27 hours apart). All cycles were 28 days in length.

[2] = as of 23 Mar. 2022, 31 patients dosed

COc1ccccc1S(=O)(=O)Nc1noc2cc(Cn3cccn3)cc(OC)c12 [COMPOUND A, 2-Methoxy-N-{4-methoxy-6-[(1H-pyrazol-1-yl)methyl]-1,2-benzoxazol-3-yl}benzene-1-sulfonamide]
COVID-19, all-causality SAE, by patient frequency (as of 23 Mar. 2022): 2 | COVID-19, all-causality Grade 3 TEAE [2]: 3.2% | Pneumonitis, Grade 5 TEAE [2]: 3.2% | Pneumonitis, Grade 5 treatment-related AE [2]: 3.2% | Urinary tract infection, all-causality Grade 3 TEAE [2]: 3.2% | MTD (cut-off 30 Sep. 2022): not identified | Alanine aminotransferase increased, all-causality Grade 3 TEAE (human, in vivo): 6.5% | Alanine aminotransferase increased, all-causality TEAE, any grade (human, in vivo): 25.8% | Anaphylactic reaction, all-causality Grade 3 TEAE (human, in vivo): 3.2% | Anemia, Grade 3 treatment-related AE (human, in vivo): 16.1% | Anemia, TRAE, any grade (human, in vivo): 54.8% | Anemia, all-causality Grade 3 TEAE (human, in vivo): 16.1% | Anemia, all-causality TEAE, any grade (human, in vivo): 54.8% | Aspartate aminotransferase increased, all-causality TEAE, any grade (human, in vivo): 29.0% | Bone pain, all-causality SAE, by patient frequency (human, in vivo): 1 | Diarrhea, Grade 3 treatment-related AE (human, in vivo): 3.2% | Diarrhea, TRAE, any grade (human, in vivo): 29.0% | Diarrhea, all-causality Grade 3 TEAE (human, in vivo): 3.2% | Diarrhea, all-causality TEAE, any grade (human, in vivo): 35.5% | Dysgeusia, TRAE, any grade (human, in vivo): 80.6% | Dysgeusia, all-causality TEAE, any grade (human, in vivo): 83.9% | Dysphagia, all-causality SAE, by patient frequency (human, in vivo): 1 | Embolism, Grade 3 treatment-related AE (human, in vivo): 3.2% | Embolism, all-causality Grade 3 TEAE (human, in vivo): 3.2% | Embolism, all-causality SAE, by patient frequency (human, in vivo): 1 | Fatigue, all-causality Grade 3 TEAE (human, in vivo): 3.2% | Fatigue, all-causality TEAE, any grade (human, in vivo): 25.8% | Flank pain, all-causality Grade 3 TEAE (human, in vivo): 3.2% | Flank pain, all-causality SAE, by patient frequency (human, in vivo): 1 | Grade 4 treatment-related AEs (human, in vivo): no Grade 4 treatment-related AEs | Haematuria, all-causality Grade 3 TEAE (human, in vivo): 3.2% | Haematuria, all-causality SAE, by patient frequency (human, in vivo): 1 | Hypercalcaemia, Grade 4 TEAE (human, in vivo): 3.2% | Hypotension, all-causality Grade 3 TEAE (human, in vivo): 6.5% | Hypotension, all-causality SAE, by patient frequency (human, in vivo): 2 | Hypotension, treatment-related SAE, by patient frequency (human, in vivo): 1 | Lymphocyte count decreased, Grade 3 treatment-related AE (human, in vivo): 3.2% | Lymphocyte count decreased, all-causality Grade 3 TEAE (human, in vivo): 6.5% | Neutrophil count decreased/Neutropenia, Grade 3 treatment-related AE (human, in vivo): 29.1% | Neutrophil count decreased/Neutropenia, TRAE, any grade (human, in vivo): 51.6% | Neutrophil count decreased/Neutropenia, all-causality Grade 3 TEAE (human, in vivo): 29.1% | Neutrophil count decreased/Neutropenia, all-causality TEAE, any grade (human, in vivo): 51.6% | Platelet count decreased, TRAE, any grade (human, in vivo): 22.6% | Platelet count decreased, all-causality TEAE, any grade (human, in vivo): 22.6% | Pneumonitis, all-causality SAE, by patient frequency (human, in vivo): 1 | Pneumonitis, treatment-related SAE, by patient frequency (human, in vivo): 1 | Pulmonary embolism, all-causality Grade 3 TEAE (human, in vivo): 3.2% | Thrombocytopenia, Grade 3 treatment-related AE (human, in vivo): 3.2% | Thrombocytopenia, all-causality Grade 3 TEAE (human, in vivo): 3.2% | White blood cell count decreased, Grade 3 treatment-related AE (human, in vivo): 9.7% | White blood cell count decreased, TRAE, any grade (human, in vivo): 29.0% | White blood cell count decreased, all-causality Grade 3 TEAE (human, in vivo): 9.7% | White blood cell count decreased, all-causality TEAE, any grade (human, in vivo): 29.0% | all-causality SAEs, Total Number of Cases (human, in vivo): 9 | all-causality SAEs, Total Number of Subjects (human, in vivo): 8 | all-causality SAEs, Total Number of events (human, in vivo): 10 | patients with at least one TEAE (human, in vivo): 31 patients | patients with at least one treatment-related adverse event (TRAE) (human, in vivo): 31 patients | severity of TRAEs (human, in vivo): majority of TRAEs were G1-2 | treatment-related SAEs, Total Number of Cases (human, in vivo): 2 | treatment-related SAEs, Total Number of Subjects (human, in vivo): 2 | treatment-related SAEs, Total Number of events (human, in vivo): 2 | RDE (human, in vivo, 28 days): 5 mg QD | Recommended dose for expansion (RDE) (human, in vivo, 28 days): 5 mg QD | kind of DLTs (human, in vivo, 28 days): Grade 3 neutropenia | time to steady state ([1]; 1 mg to 15 mg QD, cut-off 30 Sep. 2022): achieved by Cycle 1 Day 15 | Rac (ratio of AUC24 at Cycle 1 Day 15 to AUC24 at Cycle 1 Day 1) ([1]; 5 mg QD oral in combination with fulvestrant, N=4, median (minimum, maximum)): 4.2 (3.2, 5.1) | Rac (ratio of AUC24 at Cycle 1 Day 15 to AUC24 at Cycle 1 Day 1) ([1]; 5 mg QD oral monotherapy, N=4, median (minimum, maximum)): 4.1 (2.9, 5.5) | Rac (ratio of AUC24 at Cycle 1 Day 15 to AUC24 at Cycle 1 Day 1) ([1]; 8 mg QD oral monotherapy, N=7, median (minimum, maximum)): 3.8 (3.1, 5.1) | Rac (ratio of AUC24 at Cycle 1 Day 15 to AUC24 at Cycle 1 Day 1) ([1]; 15 mg QD oral monotherapy, N=6, median (minimum, maximum)): 3.8 (2.3, 4.7) | CL/F (apparent clearance) ([1]; C1D15, 5 mg QD oral in combination with fulvestrant, N=4): 0.10 (26.9) L/hr | CL/F (apparent clearance) ([1]; C1D15, 5 mg QD oral monotherapy, N=4): 0.14 (23.9) L/hr | CL/F (apparent clearance) ([1]; C1D15, 8 mg QD oral monotherapy, N=7): 0.10 (9.7) L/hr | CL/F (apparent clearance) ([1]; C1D15, 15 mg QD oral monotherapy, N=6): 0.12 (43.2) L/hr | drug-drug interaction between COMPOUND A and fulvestrant ([1]; CL/F similar alone and in combination): no apparent drug-drug interaction | linearity of pharmacokinetics ([1]; CL/F similar at each dose level, 2 mg to 15 mg, cut-off 23 Mar. 2022): linear | linearity of PK ([1]; between 1 mg and 15 mg QD dose regimens, cut-off 30 Sep. 2022): linear | COMPOUND A exposure (AUC24) versus dose ([1]; dose range 2 mg to 15 mg, alone or in combination with fulvestrant): increased proportionally when dose was increased | Tmax ([1]; oral, following repeated daily dosing to Day 15, read-out: median Tmax): 3 h | Cmax ([1]; po, 5 mg, C1D1 (after 1st dose), 5 mg QD oral monotherapy, N=4): 508 ng/mL | AUC ([1]; po, 5 mg, C1D1, 5 mg QD oral monotherapy, N=4): 8900 ng·h/mL | Tmax ([1]; po, 5 mg, C1D1, 5 mg QD oral monotherapy, N=4, median (minimum, maximum), read-out: Tmax): 3.5 h | Cmax ([1]; po, 5 mg, C1D15 (steady state), 5 mg QD oral monotherapy, N=4): 1710 ng/mL | AUC ([1]; po, 5 mg, C1D15, 5 mg QD oral monotherapy, N=4): 35900 ng·h/mL | Tmax ([1]; po, 5 mg, C1D15, 5 mg QD oral monotherapy, N=4, median (minimum, maximum), read-out: Tmax): 3 h | Cmax ([1]; po, 8 mg, C1D1 (after 1st dose), 8 mg QD oral monotherapy, N=7): 1050 ng/mL | AUC ([1]; po, 8 mg, C1D1, 8 mg QD oral monotherapy, N=7): 20500 ng·h/mL | Tmax ([1]; po, 8 mg, C1D1, 8 mg QD oral monotherapy, N=7, median (minimum, maximum), read-out: Tmax): 3 h | Cmax ([1]; po, 8 mg, C1D15 (steady state), 8 mg QD oral monotherapy, N=7): 3620 ng/mL | AUC ([1]; po, 8 mg, C1D15, 8 mg QD oral monotherapy, N=7): 76500 ng·h/mL | Tmax ([1]; po, 8 mg, C1D15, 8 mg QD oral monotherapy, N=7, median (minimum, maximum), read-out: Tmax): 3 h | Cmax ([1]; po, 15 mg, C1D1 (after 1st dose), 15 mg QD oral monotherapy, N=6): 1940 ng/mL | AUC ([1]; po, 15 mg, C1D1, 15 mg QD oral monotherapy, N=6): 35700 ng·h/mL | Tmax ([1]; po, 15 mg, C1D1, 15 mg QD oral monotherapy, N=6, median (minimum, maximum), read-out: Tmax): 3.5 h | Cmax ([1]; po, 15 mg, C1D15 (steady state), 15 mg QD oral monotherapy, N=6): 6030 ng/mL | AUC ([1]; po, 15 mg, C1D15, 15 mg QD oral monotherapy, N=6): 127000 ng·h/mL | Tmax ([1]; po, 15 mg, C1D15, 15 mg QD oral monotherapy, N=6, median (minimum, maximum), read-out: Tmax): 3 h | Cmax ([1]; po, C1D1 (after 1st dose), 5 mg QD oral in combination with fulvestrant, N=4): 641 ng/mL | AUC ([1]; po, C1D1, 5 mg QD oral in combination with fulvestrant, N=4): 12100 ng·h/mL | Tmax ([1]; po, C1D1, 5 mg QD oral in combination with fulvestrant, N=4, median (minimum, maximum), read-out: Tmax): 6 h | Cmax ([1]; po, C1D15 (steady state), 5 mg QD oral in combination with fulvestrant, N=4): 2340 ng/mL | AUC ([1]; po, C1D15, 5 mg QD oral in combination with fulvestrant, N=4): 50100 ng·h/mL | Tmax ([1]; po, C1D15, 5 mg QD oral in combination with fulvestrant, N=4, median (minimum, maximum), read-out: Tmax): 6 h | steady-state concentrations relative to Cerf targets (defined from preclinical models) ([1]; when dosed at ≥1 mg): near or above Cerf targets
